The structures appear in SMILES notation. Entries after “also recorded” stand apart in the source; their conditions may differ.

Holding throughout (type): cell-based, human
Assay [1] concerns mutant mTOR-expressing HEK293T cells. The experiment in a line: Western blot of S6/S6K phosphorylation in mutant mTOR-expressing HEK293T cells after drug treatment. To be noted: for phosphorylation of S6K in all the mutant mTOR-expressing cells: Y1450D, C1483R, R1709H, Y1977K, S2215F, L2427P, L2427Q. Here is the method: HEK293T cells (Thermo Scientific) was cultured in DMEM (Dulbecco's Modified Eagle's Medium) containing 10% FBS at 37° C. and 5% CO2. The cells were transfected with empty flag-tagged vector, flag-tagged mTOR wild type, and flag-tagged mTOR mutants using jetPRIME transfection reagent (Polyplus, France). The cells were serum-starved with DMEM containing 0.1% FBS for 24 hours after transfection and then incubated at 37° C. and 5% CO2 in PBS containing 1 mM MgCl2 and CaCl2 for 1 hour. The cells were lysed with PBS containing 1% Triton X-100 and Halt protease and phosphatase inhibitor cocktail (78440, Thermo Scientific, USA).
Proteins were resolved by SDS-PAGE and transferred to PVDF membranes (Millipore, USA). The membranes were blocked with 3% BSA in TBS containing 0.1% Tween 20 (TBST). They were washed 4 times with TBST. The membranes were each incubated overnight at 4° C. with primary antibodies including a 1/1000 dilution of anti-phospho-S6 ribosomal protein (5364, Cell Signaling Technology, USA), anti-56 ribosomal protein (2217, Cell Signaling Technology, USA), and anti-flag M2 (8164, Cell Signaling Technology, USA) in TBST. After incubation, the membranes were washed 4 times with TBST. They were incubated with a 1/5000 dilution of HRP-linked anti-rabbit or anti-mouse secondary antibodies (7074, Cell Signaling Technology, USA) for 2 hours at room temperature. After washing with TBST, immunodetection was performed using ECL reaction reagents.
Transfection of mTOR mutants into HEK293T cells was carried out in the same manner as in Example 3-2. Then, the cells were serum-starved with DMEM containing 0.1% FBS for 24 hours and incubated at 37° C. and 5% CO2 in PBS containing 1 mM MgCl2 and CaCl2 for 1 hour, followed by treatment with rapamycin, everolimus, or compounds of Chemical Formulas 1 to 4 (Torinl, INK128, AZD8055, GSK2126458); Torin was purchased from TOCRIS, INK128, AZD8055, and GSK2126458 were provided from Selleckchem, and everolimus was purchased from LC laboratory. Subsequently, Western blotting was performed in the same manner as in Example 9.
Cells expressing various mTOR mutations were treated in the same manner as in Example 3-2 with rapamycin, everolimus, or the compounds of Chemical Formulas 1 to 4 and monitored for S6K phosphorylation. The mTOR mutations were R624H, Y1450D, C1483R, R1709H, Y1977K, S2215F, L2427P, and L2427Q. […]
Cells expressing various mTOR mutations were treated in the same manner as in Example 9-1 with rapamycin, everolimus, or the compounds of Chemical Formulas 1 to 4, and monitored for S6K phosphorylation. […]
For orientation: Immunoblotting shows a protein as a band on a membrane.

For assay [2], the system named is TSC1 mutant-expressing HEK293T cells. The experiment in a line: Western blot of S6K phosphorylation in TSC1 mutant-expressing HEK293T cells after drug treatment. To be noted: Example 11; FIGS. 24a and 24b. On the procedure: (§1) Briefly, HEK293T cells (Thermo Scientific) were cultured in DMEM (Dulbecco's Modified Eagle's Medium) supplemented with 10% FBS at 37° C. and 5% CO2. The cells were transfected with empty flag-tagged vector, HA-tagged TSC1 wild-type, HA-tagged TSC2 wild-type, HA-tagged AKT3 wild-type, HA-tagged TSC1 mutant, HA-tagged TSC2 mutant and HA-tagged AKT3 mutant, respectively, using jetPRIME transfection reagent (Polyplus, France).
(§2) The cells were serum-starved with 0.1% FBS in DMEM for 24 hours after transfection and then incubated at 37° C. and 5% CO2 in PBS containing 1 mM MgCl2 and CaCl2 for 1 hour. The cells were lysed with PBS containing 1% Triton X-100 and Halt protease and phosphatase inhibitor cocktail (78440, Thermo Scientific, USA). Proteins were resolved by SDS-PAGE and transferred to PVDF membranes (Millipore, USA). The membranes were blocked with 3% BSA in TBS containing 0.1% Tween 20 (TBST). They were washed 4 times with TBST. The membranes were incubated overnight with primary antibodies including a 1/1000 dilution of anti-phospho-S6 ribosomal protein (5364, Cell Signaling Technology, USA), anti-56 ribosomal protein (2217, Cell Signaling Technology, USA), and anti-flag M2 (8164, Cell Signaling Technology, USA) in TBST at 4° C., respectively. After incubation, the membranes were washed 4 times with TBST. […]

The subject of assay [3] is TSC2 mutant-expressing HEK293T cells. In words: Western blot of S6K phosphorylation in TSC2 mutant-expressing HEK293T cells after drug treatment. To be noted: Example 11; FIGS. 25a and 25b. Here is the method: as §1, §2

Turning to `CO[C@H]1C[C@@H]2CC[C@@H](C)[C@@](O)(O2)C(=O)C(=O)N2CCCC[C@H]2C(=O)O[C@H]([C@H](C)C[C@@H]2CC[C@@H](OCCO)[C@H](OC)C2)CC(=O)[C@H](C)/C=C(\C)[C@@H](O)[C@@H](OC)C(=O)[C@H](C)C[C@H](C)/C=C/C=C/C=C/1C` [everolimus], the “phosphorylation of S6K in mutant mTOR-expressing cells” value in assay [1] (Example 3-4, HEK293T, Western blot, FIGS. 9a to 9c) is given as “inhibited; also recorded: reduce”. In addition, the “phosphorylation of S6K in all the mutant mTOR-expressing cells” value in assay [1] (Example 3-5, mutations R624H, FIGS. 13 and 14) is recorded as “inhibited”; in assay [1] (Example 10-2, variants R624H, FIGS. 23a and 23b), “inhibited”. In addition, the “phosphorylation of S6 in mutant mTOR-expressing cells” value in assay [1] (Example 10-1, FIG. 22, mTOR L2427P-expressing cells) was “inhibited”. For the same molecule, in assay [2], the “S6K phosphorylation in TSC1 mutant-expressing cells” value is given as “inhibit”. Also, the “S6K phosphorylation in TSC2 mutant-expressing cells” value in assay [3] is “inhibit”.

(Values after patent US12453733B2, “Composition for prevention or treatment of intractable epilepsy comprising mTOR inhibitor” (SoVarGen Co., Ltd., priority 2015, dated 2025).)
